Structures can show the parent of a compound that is named as a salt.
Experiments:
[1] = test system: induced supraventricular tachycardia; assay: Supraventricular tachycardia (SVT) model in anesthetized dogs, IT vs IV; type: in vivo; conditions: for cardiovascular effect when given by intratracheal instillation (summary): dog, in vivo
Method: Supraventricular Tachycardia Model:
Anesthesia/Surgical Preparation:
A venous catheter was placed in a peripheral vessel (i.e., cephalic) for administration of anesthetic(s). For anesthesia induction, all animals were given a combination of diazepam (˜0.5 mg/kg) and ketamine (˜10 mg/kg) intravenously through this venous catheter. Anesthesia was sustained until completion of the study with an intravenous infusion of pentobarbital (5-15 mg/kg/hr). Following induction, animals were endotracheally intubated and mechanically ventilated (˜12 breaths/min with a tidal volume of 200-300 mL).
Subsequently, a cut-down on a jugular vein permitted the introduction of a pacing lead into the right atrium. Similarly, for arterial pressure monitoring, a solid-state micromanometer catheter (Millar Instruments) was advanced into the aortic root via a cut-down over an artery (e.g., femoral, carotid). Transthoracic electrodes forming ECG lead II was placed. For vehicle/test article delivery, a 4F catheter was introduced through the trachea and wedged into a small airway, and a venous catheter was placed in a peripheral vessel (i.e., cephalic).
Following instrumentation/hemodynamic stabilization (for at least 15 minutes), right atrial pacing (5-10 V, 40 Hz, 2 ms pulses) was established in order to induce supraventricular tachycardia (SVT); pacing and SVT was sustained throughout the duration of the experiments. Approximately 5 minutes after onset of SVT and while monitoring ECG/arterial pressure continuously, the animals were administered three escalating doses (one at a time) of a test article; each dose was delivered as a bolus (˜3 mL) directly into a small airway through the intratracheal catheter (IT). Following dosing, the heart-rate (HR) and arterial pressure response were monitored for 15 minutes.
Subsequently (once the response to three IT doses had been recorded), hemodynamic recovery was allowed for approximately 30 minutes, and the electrocardiographic/hemodynamic response to the highest test-article dose was re-evaluated; however, for comparison purposes, this dose was delivered intravenously (IV).
Overall, two groups/test-articles were studied, and up to two animals were assigned to each group (n=2/group): one group received esmolol HCL (0.5-1.0 mg/kg, ESM), while the other received adenosine (0.25-1.0 mg/kg, ADN); only one test article was administered to per animal.

[2] = test system: induced atrial fibrillation; assay: Induced atrial fibrillation model in anesthetized dogs, intratracheal (IT) administration; type: in vivo; conditions: for conversion of induced atrial fibrillation to normal sinus rhythm: pulmonary dose 0.25 mg/kg body weight (FIG. 13), hydrochloride
Method: Atrial Fibrillation Model: Anesthesia/Surgical Preparation: A venous catheter was placed in a peripheral vessel (i.e., cephalic) for administration of anesthetic. […] Following induction, animals were endotracheally intubated and mechanically ventilated (˜12 breaths/minute with a tidal volume of 200-300 mL). Subsequently, a cut-down on a jugular vein permitted introduction of a pacing lead into the right atrium. Transthoracic electrodes forming ECG lead II were placed. For test/vehicle article delivery, a 4F catheter was introduced through the trachea and wedged into a small airway, and a venous catheter was placed in a peripheral vessel (i.e., cephalic). […] Approximately 5 min after administration of this parasympathomimetic was started; the following experiments were performed: […] Observations were made for up to 10 minutes. […] Vehicle was only water.

## COC(=O)CCc1ccc(OCC(O)CNC(C)C)cc1 (stereo not shown) [esmolol, esmolol HCl]
[1]; 0.5 mg/kg via the lung (FIG. 17, 18)
  period of AV block: AV block induced
[1]; 0.75 mg/kg via the lung (FIG. 20)
  period of AV block: AV block induced
[1]
  cardiovascular effect when given by intratracheal instillation (summary): probable effect
[1]; elevating IT doses
  AV block: 2nd degree AV block at lower doses
  PR intervals in the ECG traces: prolonging the PR intervals
[1]; higher dose 1.0 mg/kg
  electrophysiological effects: did not produce the same electrophysiological effects

## COc1ccc([C@@H]2Sc3ccccc3N(CCN(C)C)C(=O)[C@@H]2OC(C)=O)cc1 [diltiazem, diltiazem hydrochloride]
[2]; IT bolus
  conversion of Atrial Fibrillation to normal sinus rhythm: rapidly converted the Atrial Fibrillation to normal sinus rhythm
[2]; dog, in vivo
  cardiovascular effect when given by intratracheal instillation (summary): clear cardiovascular effect
[2]; dog, in vivo, 0.25 mg/kg
  mean arterial blood pressure (MAP): notable drop in mean arterial blood pressure
[2]; pulmonary dose 0.25 mg/kg
  PQ interval: prolonged the PQ interval
  heart rate: slowed down but marginally
[2]; 0.25 mg/kg
  conversion of induced atrial fibrillation to normal sinus rhythm: converted the induced atrial fibrillation to normal sinus rhythm
[2]; listed as diltiazem HCl, 0.25 mg/kg
  conversion of induced atrial fibrillation to normal sinus rhythm: Afib converting after administration
[1]; 0.25 mg/kg
  pulmonary vs IV route: comparable in all aspects
[1]; IV or pulmonary route
  PR interval: prolonged the PR interval
3.5 mg/mL
  pH of solution in water: 6.7
Distilled water, diltiazem hydrochloride 50 mg/ml, flecainide acetate 30 mg/ml
  appearance of solution: clear with no visible particulate matter

## Nc1ncnc2c1ncn2[C@@H]1O[C@H](CO)[C@@H](O)[C@H]1O [adenosine]
[1]
  cardiovascular effect when given by intratracheal instillation (summary): a clear response was not observed
[1]; via the lung
  effect on the heart: did not have any effect on the heart

## CN(CCOc1ccc(NS(C)(=O)=O)cc1)CCc1ccc(NS(C)(=O)=O)cc1 [dofetilide]
[2]; IT bolus
  effect on ventricular rate: marginally slowed the ventricular rate
[2]; dog, in vivo
  cardiovascular effect when given by intratracheal instillation (summary): probable effect
[2]; escalating pulmonary doses of 10-40 mcg/kg body weight
  heart rate: minor reduction in heart rate
